Test results taken from patent publication US9067943B2, “[1,2,3]triazolo[4,5-D]pyrimidine derivatives” (priority 2011, dated 2015).

Legend:
human CB2 receptors = target: T1, human CB2 receptors (Homo sapiens, UniProt P34972); assay: cAMP assay; type: cell-based
T1 construct: expressed in transfected cells; host or cells: CHO cells
Procedure: (§1) CHO cells expressing human CB1 or CB2 receptors are seeded 17-24 hours prior to the experiment 50.000 cells per well in a black 96 well plate with flat clear bottom (Corning Costar #3904) in DMEM (Invitrogen No. 31331), 1×HT supplement, with 10% fetal calf serum and incubated at 5% CO2 and 37° C. in a humidified incubator. The growth medium was exchanged with Krebs Ringer Bicarbonate buffer with 1 mM IBMX and incubated at 30° C. for 30 min. Compounds were added to a final assay volume of 100 μl and incubated for 30 min at 30° C. Using the cAMP-Nano-TRF detection kit the assay (Roche Diagnostics) was stopped by the addition of 50 μl lysis reagent (Tris, NaCl, 1.5% Triton X100, 2.5% NP40, 10% NaN3) and 50 μl detection solutions (20 μM mAb Alexa700-cAMP 1:1, and 48 μM Ruthenium-2-AHA-cAMP) and shaken for 2 h at room temperature. The time-resolved energy transfer is measured by a TRF reader (Evotec Technologies GmbH), equipped with a ND:YAG laser as excitation source. The plate is measured twice with the excitation at 355 nm and at the emission with a delay of 100 ns and a gate of 100 ns, total exposure time 10 s at 730 (bandwidth 30 nm) or 645 nm (bandwidth 75 nm), respectively. The FRET signal is calculated as follows: FRET=T730-Alexa730-P(T645-B645) with P=Ru730-B730/Ru645-B645, where T730 is the test well measured at 730 nM, T645 is the test well measured at 645 nm, B730 and B645 are the buffer controls at 730 nm and 645 nm, respectively. cAMP content is determined from the function of a standard curve spanning from 10 μM to 0.1 nM cAMP.
(§2) EC50 values were determined using Activity Base analysis (ID Business Solution, Limited). The EC50 values for a wide range of cannabinoid agonists generated from this assay were in agreement with the values published in the scientific literature.

human CB1 receptors = target: T2, human CB1 receptors (Homo sapiens, UniProt P21554); assay: cAMP assay; type: cell-based
T2 construct: expressed in transfected cells; host or cells: CHO cells
Procedure: as §1, §2

T2 sequence (P21554 whole entry): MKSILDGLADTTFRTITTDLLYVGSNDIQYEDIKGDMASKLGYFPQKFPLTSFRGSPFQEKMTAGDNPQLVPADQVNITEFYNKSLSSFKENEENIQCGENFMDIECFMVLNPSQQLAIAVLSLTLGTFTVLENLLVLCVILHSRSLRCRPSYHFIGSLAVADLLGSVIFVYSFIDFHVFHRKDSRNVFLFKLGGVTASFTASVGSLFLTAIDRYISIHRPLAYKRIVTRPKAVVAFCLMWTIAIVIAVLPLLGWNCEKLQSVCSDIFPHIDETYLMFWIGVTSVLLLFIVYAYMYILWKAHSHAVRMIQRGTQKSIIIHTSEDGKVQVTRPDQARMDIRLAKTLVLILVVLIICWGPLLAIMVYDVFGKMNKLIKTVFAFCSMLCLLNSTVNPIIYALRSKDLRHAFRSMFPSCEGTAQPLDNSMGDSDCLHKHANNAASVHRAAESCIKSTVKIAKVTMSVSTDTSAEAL
T1 sequence (P34972 whole entry): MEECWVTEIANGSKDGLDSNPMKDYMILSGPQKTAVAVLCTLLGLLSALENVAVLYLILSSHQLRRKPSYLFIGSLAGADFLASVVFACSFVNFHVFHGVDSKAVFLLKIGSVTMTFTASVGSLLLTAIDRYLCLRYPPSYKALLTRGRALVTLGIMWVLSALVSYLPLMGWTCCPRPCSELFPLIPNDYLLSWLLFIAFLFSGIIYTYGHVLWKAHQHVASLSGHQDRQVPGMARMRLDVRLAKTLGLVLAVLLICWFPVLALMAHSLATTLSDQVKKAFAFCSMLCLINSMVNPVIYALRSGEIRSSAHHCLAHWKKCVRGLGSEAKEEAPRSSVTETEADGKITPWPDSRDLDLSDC

SMILES	EC50 (human CB2 receptors) [nM]	EC50 (human CB1 receptors) [nM]
CC(C)(C)c1nc(N2CCC(F)(F)C2)c2nn(Cc3cccc(C(F)(F)F)c3Cl)nc2n1 [Example 56, 5-tert-Butyl-2-(2-chloro-3-trifluoromethyl-benzyl)-7-(3,3-difluoro-pyrrolidin-1-yl)-2H-[1,2,3]triazolo[4,5-d]pyrimidine]	12.6	> 10000
COc1ccc(F)c(Cn2nc3nc(C(C)(C)C)nc(N4CCC(F)(F)C4)c3n2)c1Cl [Example 57, 5-tert-Butyl-2-(2-chloro-6-fluoro-3-methoxy-benzyl)-7-(3,3-difluoro-pyrrolidin-1-yl)-2H-[1,2,3]triazolo[4,5-d]pyrimidine]	3.6	> 10000
CC(C)(C)c1nc(N2CCC(F)(F)C2)c2nn(CCc3cccnc3)nc2n1 [Example 58, 5-tert-Butyl-7-(3,3-difluoro-pyrrolidin-1-yl)-2-(2-pyridin-3-yl-ethyl)-2H-[1,2,3]triazolo[4,5-d]pyrimidine]	4.3	> 10000
CC(C)(C)c1nc(N2CCC(F)(F)C2)c2nn(CCc3ccncc3)nc2n1 [Example 59, 5-tert-Butyl-7-(3,3-difluoro-pyrrolidin-1-yl)-2-(2-pyridin-4-yl-ethyl)-2H-[1,2,3]triazolo[4,5-d]pyrimidine]	3.5	> 10000
CC(C)(C)c1nc(N2CCC(F)(F)C2)c2nn(Cc3c(C(F)(F)F)ccc(Cl)c3Cl)nc2n1 [Example 60, 5-tert-Butyl-2-(2,3-dichloro-6-trifluoromethyl-benzyl)-7-(3,3-difluoro-pyrrolidin-1-yl)-2H-[1,2,3]triazolo[4,5-d]pyrimidine]	12.7	> 10000
CC(C)(C)c1nc(N2CCC(F)(F)C2)c2nn(Cc3nccc(Cl)c3Cl)nc2n1 [Example 61, 5-tert-Butyl-2-(3,4-dichloro-pyridin-2-ylmethyl)-7-(3,3-difluoro-pyrrolidin-1-yl)-2H-[1,2,3]triazolo[4,5-d]pyrimidine]	2.6	> 10000
CC(C)(C)c1nc(N2CCC(F)(F)C2)c2nn(C3CS(=O)(=O)C3)nc2n1 [Example 62, 5-tert-Butyl-7-(3,3-difluoro-pyrrolidin-1-yl)-2-(1,1-dioxo-1λ6-thietan-3-yl)-2H-[1,2,3]triazolo[4,5-d]pyrimidine]	5.8	> 10000
CC(C)(C)c1nc(N2CCC(F)(F)C2)c2nn(C3CCS(=O)(=O)C3)nc2n1 (stereo not drawn) [Example 63, 5-tert-Butyl-7-(3,3-difluoro-pyrrolidin-1-yl)-2-(1,1-dioxo-tetrahydro-1λ6-thiophen-3-yl)-2H-[1,2,3]triazolo[4,5-d]pyrimidine]	4	> 10000
CC(C)(C)c1nc(N2CCC(F)(F)C2)c2nn(CC(=O)c3ccccn3)nc2n1 [Example 64, 2-[5-tert-Butyl-7-(3,3-difluoro-pyrrolidin-1-yl)-[1,2,3]triazolo[4,5-d]pyrimidin-2-yl]-1-pyridin-2-yl-ethanone]	2.4	> 10000
Cc1nnc(Cn2nc3nc(C(C)(C)C)nc(N4CCC(F)(F)C4)c3n2)o1 [Example 65, 5-tert-Butyl-7-(3,3-difluoro-pyrrolidin-1-yl)-2-(5-methyl-[1,3,4]oxadiazol-2-ylmethyl)-2H-[1,2,3]triazolo[4,5-d]pyrimidine]	18.6	> 10000
CC(C)(C)c1nc(N2CCC(F)(F)C2)c2nn(Cc3ccncc3Cl)nc2n1 [Example 66, 5-tert-Butyl-2-(3-chloro-pyridin-4-ylmethyl)-7-(3,3-difluoro-pyrrolidin-1-yl)-2H-[1,2,3]triazolo[4,5-d]pyrimidine]	0.4	234
Cc1nc(Cn2nc3nc(C(C)(C)C)nc(N4CCC(F)(F)C4)c3n2)no1 [Example 67, 5-tert-Butyl-7-(3,3-difluoro-pyrrolidin-1-yl)-2-(5-methyl-[1,2,4]oxadiazol-3-ylmethyl)-2H-[1,2,3]triazolo[4,5-d]pyrimidine]	1.3	1630
Cn1nnnc1Cn1nc2nc(C(C)(C)C)nc(N3CCC(F)(F)C3)c2n1 [Example 68, 5-tert-Butyl-7-(3,3-difluoro-pyrrolidin-1-yl)-2-(1-methyl-1H-tetrazol-5-ylmethyl)-2H-[1,2,3]triazolo[4,5-d]pyrimidine]	2.3	> 10000
Cn1ncnc1Cn1nc2nc(C(C)(C)C)nc(N3CCC(F)(F)C3)c2n1 [Example 69, 5-tert-Butyl-7-(3,3-difluoro-pyrrolidin-1-yl)-2-(2-methyl-2H-[1,2,4]triazol-3-ylmethyl)-2H-[1,2,3]triazolo[4,5-d]pyrimidine]	1.1	> 10000
Cn1c(Cn2nc3nc(C(C)(C)C)nc(N4CCC(F)(F)C4)c3n2)nnc1S(C)(=O)=O [Example 70, 5-tert-Butyl-7-(3,3-difluoro-pyrrolidin-1-yl)-2-(5-methanesulfonyl-4-methyl-4H-[1,2,4]triazol-3-ylmethyl)-2H-[1,2,3]triazolo[4,5-d]pyrimidine]	33.6	> 10000
CN(C)c1c(Cl)cncc1Cn1nc2nc(C(C)(C)C)nc(N3CCC(F)(F)C3)c2n1 [Example 71, {3-[5-tert-Butyl-7-(3,3-difluoro-pyrrolidin-1-yl)-[1,2,3]triazolo[4,5-d]pyrimidin-2-ylmethyl]-5-chloro-pyridin-4-yl}-dimethyl-amine]	1.4	105
CC(C)(C)c1nc(N2CCC(F)(F)C2)c2nn(Cc3c[nH]nc3C(F)(F)F)nc2n1 [Example 72, 5-tert-Butyl-7-(3,3-difluoro-pyrrolidin-1-yl)-2-(3-trifluoromethyl-1H-pyrazol-4-ylmethyl)-2H-[1,2,3]triazolo[4,5-d]pyrimidine]	11.8	> 10000
Cc1nonc1Cn1nc2nc(C(C)(C)C)nc(N3CC[C@H](O)C3)c2n1 [Example 73, (S)-1-[5-tert-Butyl-2-(4-methyl-furazan-3-ylmethyl)-2H-[1,2,3]triazolo[4,5-d]pyrimidin-7-yl]-pyrrolidin-3-ol]	7.1	> 10000
Cc1noc(Cn2nc3nc(C(C)(C)C)nc(N4CC[C@H](O)C4)c3n2)n1 [Example 74, (S)-1-[5-tert-Butyl-2-(3-methyl-[1,2,4]oxadiazol-5-ylmethyl)-2H-[1,2,3]triazolo[4,5-d]pyrimidin-7-yl]-pyrrolidin-3-ol]	61.3	> 10000
CC(C)(C)c1nc(N2CC[C@H](O)C2)c2nn(Cc3ncccc3Cl)nc2n1 [Example 75, (S)-1-[5-tert-Butyl-2-(3-chloro-pyridin-2-ylmethyl)-2H-[1,2,3]triazolo[4,5-d]pyrimidin-7-yl]-pyrrolidin-3-ol]	4.6	> 10000
CC(C)(C)c1nc(N2CC[C@H](O)C2)c2nn(Cc3nc(Cl)ccc3Cl)nc2n1 [Example 76, (S)-1-[5-tert-Butyl-2-(3,6-dichloro-pyridin-2-ylmethyl)-2H-[1,2,3]triazolo[4,5-d]pyrimidin-7-yl]-pyrrolidin-3-ol]	5.9	> 10000
CC(C)(C)c1nc(N2CC[C@H](O)C2)c2nn(Cc3cccnc3Cl)nc2n1 [Example 77, (S)-1-[5-tert-Butyl-2-(2-chloro-pyridin-3-ylmethyl)-2H-[1,2,3]triazolo[4,5-d]pyrimidin-7-yl]-pyrrolidin-3-ol]	15.5	> 10000
CC(C)(C)c1nc(N2CC[C@H](O)C2)c2nn(Cc3cccc(Cl)c3Cl)nc2n1 [Example 78, (S)-1-[5-tert-Butyl-2-(2,3-dichloro-benzyl)-2H-[1,2,3]triazolo[4,5-d]pyrimidin-7-yl]-pyrrolidin-3-ol]	6	> 10000
CC(C)(C)c1nc(N2CC[C@H](O)C2)c2nn(Cc3ccccc3C(F)(F)F)nc2n1 [Example 79, (S)-1-[5-tert-Butyl-2-(2-trifluoromethyl-benzyl)-2H-[1,2,3]triazolo[4,5-d]pyrimidin-7-yl]-pyrrolidin-3-ol]	0.4	> 10000
CC(C)(C)c1nc(N2CC[C@H](O)C2)c2nn(Cc3ccccc3S(C)(=O)=O)nc2n1 [Example 80, (S)-1-[5-tert-Butyl-2-(2-methanesulfonyl-benzyl)-2H-[1,2,3]triazolo[4,5-d]pyrimidin-7-yl]-pyrrolidin-3-ol]	10.3	> 10000
Cc1cc(Cn2nc3nc(C(C)(C)C)nc(N4CCC(F)(F)C4)c3n2)n(C)n1 [Example 81, 5-tert-Butyl-7-(3,3-difluoro-pyrrolidin-1-yl)-2-(2,5-dimethyl-2H-pyrazol-3-ylmethyl)-2H-[1,2,3]triazolo[4,5-d]pyrimidine]	9.4	> 10000
Cn1nncc1Cn1nc2nc(C(C)(C)C)nc(N3CCC(F)(F)C3)c2n1 [Example 82, 5-tert-Butyl-7-(3,3-difluoro-pyrrolidin-1-yl)-2-(3-methyl-3H-[1,2,3]triazol-4-ylmethyl)-2H-[1,2,3]triazolo[4,5-d]pyrimidine]	2.8	> 10000
